Here are results for ten compounds from US20260317332A1, “BICYCLIC HETEROCYCLE COMPOUNDS FOR THE TREATMENT OF CANCER” (Hoffmann-La Roche Inc., priority 2023, published 2026).

Experiment [1] addresses T1, CD73 (Homo sapiens, UniProt P21589).
T1 sequence (P21589 27-574): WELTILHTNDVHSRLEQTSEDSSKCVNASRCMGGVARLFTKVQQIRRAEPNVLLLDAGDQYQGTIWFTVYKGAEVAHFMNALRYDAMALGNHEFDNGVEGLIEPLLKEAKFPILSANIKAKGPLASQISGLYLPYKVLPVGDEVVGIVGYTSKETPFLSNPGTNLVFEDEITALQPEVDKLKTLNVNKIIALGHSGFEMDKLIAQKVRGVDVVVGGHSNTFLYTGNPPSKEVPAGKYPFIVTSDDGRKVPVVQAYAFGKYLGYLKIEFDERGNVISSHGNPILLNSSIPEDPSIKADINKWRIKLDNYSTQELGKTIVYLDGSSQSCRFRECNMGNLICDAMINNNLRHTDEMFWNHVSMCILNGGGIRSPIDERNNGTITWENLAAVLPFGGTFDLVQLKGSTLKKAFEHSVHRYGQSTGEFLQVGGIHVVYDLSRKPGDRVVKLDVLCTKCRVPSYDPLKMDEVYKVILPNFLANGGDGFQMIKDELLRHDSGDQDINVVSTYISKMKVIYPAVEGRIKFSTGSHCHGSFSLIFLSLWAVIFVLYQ
Briefly: Human CD73 Biochemical Assay. To be noted: 0.05 nM recombinant CD73; AMP 5.56 μM final; 10 min at room temperature; LC/MS adenosine readout; read-out: Enzymatic IC50 against human CD73. As to the method:
The purpose of this assay is to identify and characterize inhibitors of human CD73 enzymatic activity. Compound serial dilution (1:3) was prepared with Echo 555 liquid handler (Labcyte) into the corresponding wells of a 384-well plate. 10 μL of enzyme working solution (containing 0.05 nM recombinant CD73 protein, 10 mM Tris pH 7.5, 100 mM NaCl, 0.01% BSA, 0.2 mM Octyl glucoside and 1 mM NaH2PO4) was added to the assay plate and incubated with compounds for 15 minutes at room temperature. After adding 15 μL of AMP working solution (Containing 10 mM Tris pH 7.5, 100 mM NaCl, 0.01% BSA, 0.2 mM Octyl glucoside, with 5.56 μM of AMP final concentration) and incubate for 10 min at room temperature. Stop the reaction by adding 75 μL of stop solution (5% TCA in H2O containing 250 nM 13C5-adenosine) to each well for 10 min incubation. After centrifugation, 75 μL of the mixture was transferred to a new 384-well plate for LC/MS analysis.
Samples from the 384-well plates, were loaded onto an autosampler deck, then injected with ADDA-LC-MS/MS. The aqueous mobile phase is 0.1% formic acid in water. The organic mobile phase is 0.1% formic acid in acetonitrile. Flow rate is maintained at 0.8 mL/minute using Shimadzu pumps. The column is ACE 5 Phenyl, 50×2.1 mm. The analysis was performed on a SCIEX triple quadrupole mass spectrometer operating in positive ion mode. The effluent from the HPLC column was directly introduced into the electrospray ionization (ESI). Multiple reaction monitoring (MRM) is used to determine analyte and internal standard (IS) responses. The MRM for adenosine is 268.1/136.1, for 13C5-Adenosine (IS) is 273.2/136.2. The data is calculated using the peak area ratio (PAR) semi-quantitative method.

The target in experiment [2] is T1, CD73. Description: CD73 Cellular Assay. It is filed as cell-based. Also on record: 40 μL of MDA-MB-231 cells (ATCC, HTB-26, breast cancer); host or cells: MDA-MB-231. To be noted: MDA-MB-231 cells; 200 μM AMP working solution; 45 min at 37° C.; malachite readout; read-out: Cellular IC50 against CD73. As to the method: Compound serial dilution (1:3) was prepared with Echo 555 liquid handler (Labcyte) into the corresponding wells of a 384-well plate. 40 μL of MDA-MB-231 cells (ATCC, HTB-26, breast cancer, final concentration at 20,000 cells/mL) suspended in assay buffer (20 mM HEPES pH 7.4, 137 mM NaCl, 5.4 mM KCl, 1.3 mM CaCl2, 4.2 mM NaHCO3, 1 mg/mL glucose) were added into the corresponding wells of the plate. After incubating with compounds for 30 minutes, 40 μL of AMP working solution (200 μM AMP in assay buffer) was added into each well in the assay plate. The assay plate was then incubated in a 5% CO2 incubator (Thermo Fisher Scientific) at 37° C. for 45 min. After the reaction was completed, 50 μL of the supernatants was collected and transferred into a new 384 well plate. 10 μL of Malachite A was added to each well in the assay plate and incubated for 10 minutes. 10 μL of Malachite B was then added to each corresponding well of the plate and incubated for 30 minutes. Finally the absorbance value was read on the Envision plate reader at […]. Calculation percentage inhibition by using equation {% inhibition=100×[1−(X−MIN)/(MAX−MIN)]} where X equals to the well signal, Max equals signal of neutral control and MIN equals signal of inhibitor control.

The test system of the next experiment is CD8+ T cells. Briefly: T Cell Proliferation Assay: CD8+ T cell proliferation. Type of experiment: cell-based. To be noted: high AMP condition (200 μM AMP, 5 μM EHNA), CD3/CD28 beads, 72 hours, read-out: CD8+ T cell proliferation EC50 (rescue of proliferation). As to the method:
(§1) The purpose of this assay is to characterize the potency of inhibitors of CD73 in rescuing adenosine-mediated inhibition of T cell proliferation. CD4+ or CD8+ T cells were isolated from peripheral blood mononuclear cells (PBMCs, HemaCare) by immunomagnetic negative selection using EasySep™ Isolation Kit (STEMCELL Technologies) following the supplier's protocol. Pan T cells were pelleted by centrifugation at 300 gravitational force (g) for 5 minutes at room temperature and re-suspended in PBS. CellTrace™ Violet staining solution (Invitrogen) was added at 1:5,000 and incubated at 37° C. for 20 minutes, protected from light. Complete culture medium [RPMI-1640 (Gibco), 10% Fetal Bovine Serum (Gibco), 2 mM GlutaMAX (Gibco) and 1 mM Sodium Pyruvate (Gibco), 100 U/mL Penicillin-Streptomycin (Gibco) and MEM non-essential amino acids (NEAA) cell culture supplement (1:100, Gibco)] was then added, mixed, and incubated at 37° C. for 5 minutes. Cells were then pelleted by centrifugation at 300 g for 5 minutes at room temperature and re-suspended in fresh, pre-warmed complete culture medium. 50 μL of cells were seeded per well in 96 well u-bottom plates. 50 μL of CD3/CD28 beads-containing medium and 50 μL of media containing compounds were added into cells. 50 μL of media containing AMP and EHNA hydrochloride (Sigma-Aldrich) was added into cells at 200 μM and 5 μM final concentration, respectively. Cells were incubated for 72 hours at 37° C. in a 5% CO2 incubator. 200 μL of PBS was then added to each well and cells were centrifuged at 300 g, 4° C. for 10 minutes. The supernatant was discarded. 50 μL of Human TruStain FcX™ (Fc Receptor Blocking Solution, BioLegend) diluted 1:100 in PBS was added to each well, mixed gently and incubated for 20 minutes at 4° C. 50 μL of staining solution (BioLegend) was added to each well, mixed gently and incubated at 4° C. for 30 minutes. Cells were centrifuged at 300 g, 4° C. for 10 minutes and the supernatant was discarded. The cell pellets were washed with 250 μL of cell staining buffer and centrifuged at 300 g, 4° C. for 10 minutes. The supernatant was discarded and cells were re-suspended in 60 μL of cell staining buffer and analyzed on a flow cytometer.

The subject of another experiment is CD4+ T cells. Description: T Cell Proliferation Assay: CD4+ T cell proliferation. It is filed as cell-based. To be noted: Homo sapiens, high AMP condition (200 μM AMP, 5 μM EHNA), CD3/CD28 beads, 72 hours, read-out: CD4+ T cell proliferation EC50 (rescue of proliferation). As to the method:
as §1

Each structure is given as a SMILES string.

The IC50 is the concentration that inhibits the measured activity by half. For `Cn1nc(O[C@H](c2cc(OCC(F)(F)F)ncn2)C(F)F)c2cc(-c3c[nH]c(=O)[nH]c3=O)nnc21` (single isomer, unassigned) [Example 35A], the IC50 on CD73 [1] worked out at 0.06 nM; on CD73 [2], 0.59 nM. In addition, the EC50 with CD8+ T cells came out at 0.32 nM; in the experiment with CD4+ T cells, 0.3 nM.

Regarding `Cn1nc(O[C@H](c2ccnc(COC3CC3)c2)C(F)F)c2cc(-c3c[nH]c(=O)[nH]c3=O)nnc21` [Example 2, 5-[3-[(1R)-1-[2-(cyclopropoxymethyl)-4-pyridyl]-2,2-difluoro-ethoxy]-1-methyl-pyrazolo[3,4-c]pyridazin-5-yl]-1H-pyrimidine-2,4-dione], the half-maximal inhibitory concentration (IC50) on CD73 [1] was found to be 0.07 nM; at CD73 [2] it was 0.21 nM. For the same compound, the EC50 in the experiment with CD8+ T cells stood at 0.17 nM; with CD4+ T cells, 0.18 nM.

As to `Cn1nc(O[C@H](c2cc(OCC(F)(F)F)ccn2)C(F)F)c2cc(-c3c[nH]c(=O)[nH]c3=O)nnc21` [Example 4, 5-[3-[(1R)-2,2-difluoro-1-[4-(2,2,2-trifluoroethoxy)-2-pyridyl]ethoxy]-1-methyl-pyrazolo[3,4-c]pyridazin-5-yl]-1H-pyrimidine-2,4-dione], the IC50 came out at 0.07 nM at CD73 [1] and 0.49 nM at CD73 [2]. For the same compound, the values for the EC50 in the experiment with CD8+ T cells and with CD4+ T cells were 0.22 nM and 0.18 nM, respectively.

As for `Cn1nc(O[C@H](c2ccnc(OCC(F)(F)F)c2)C(F)F)c2cc(-c3c[nH]c(=O)[nH]c3=O)nnc21` [Example 10, 5-[3-[(1R)-2,2-difluoro-1-[2-(2,2,2-trifluoroethoxy)-4-pyridyl]ethoxy]-1-methyl-pyrazolo[3,4-c]pyridazin-5-yl]-1H-pyrimidine-2,4-dione], the values for the concentration for half-maximal inhibition (IC50) on CD73 [1] and at CD73 [2] were 0.06 nM and 0.55 nM, respectively. The EC50 with CD8+ T cells stood at 0.08 nM; in the experiment with CD4+ T cells it was 0.14 nM.

On to `Cn1nc(O[C@H](c2ccnc(OCC(F)F)c2)C(F)F)c2cc(-c3c[nH]c(=O)[nH]c3=O)nnc21` [Example 11B, 5-[3-[(1R)-1-[2-(2,2-difluoroethoxy)-4-pyridyl]-2,2-difluoro-ethoxy]-1-methyl-pyrazolo[3,4-c]pyridazin-5-yl]-1H-pyrimidine-2,4-dione], for which the half-inhibitory concentration (IC50) at CD73 [1] turned out to be 0.05 nM; at CD73 [2], 0.72 nM. The EC50 in the experiment on CD8+ T cells was found to be 0.29 nM; in the experiment on CD4+ T cells it was 0.24 nM.

With `Cn1nc(O[C@H](c2ccnc(OCC(F)(F)F)c2)C(F)F)c2cc(-c3n[nH]c(=O)[nH]c3=O)nnc21` [Example 12, 6-[3-[(1R)-2,2-difluoro-1-[2-(2,2,2-trifluoroethoxy)-4-pyridyl]ethoxy]-1-methyl-pyrazolo[3,4-c]pyridazin-5-yl]-2H-1,2,4-triazine-3,5-dione], the IC50 stood at 0.02 nM on CD73 [1] and 0.67 nM at CD73 [2]. The EC50 in the experiment with CD8+ T cells came to 0.12 nM; in the experiment with CD4+ T cells, 0.15 nM.

As to `Cn1nc(O[C@H](c2ccc3cnn(CC(F)(F)F)c3c2)C(F)F)c2cc(-c3c[nH]c(=O)[nH]c3=O)nnc21` [Example 24, 5-[3-[(1R)-2,2-difluoro-1-[1-(2,2,2-trifluoroethyl)indazol-6-yl]ethoxy]-1-methyl-pyrazolo[3,4-c]pyridazin-5-yl]-1H-pyrimidine-2,4-dione], the IC50 at CD73 [1] amounted to 0.05 nM; on CD73 [2], 0.44 nM. For the same compound, the EC50 in the experiment on CD8+ T cells was 0.23 nM; in the experiment with CD4+ T cells it was 0.19 nM.

As for `C[C@H](Nc1cc([C@@H](Oc2nn(C)c3nnc(-c4c[nH]c(=O)[nH]c4=O)cc23)C(F)F)ccn1)C(F)(F)F` [Example 26, 5-[3-[(1R)-2,2-difluoro-1-[2-[[(1S)-2,2,2-trifluoro-1-methyl-ethyl]amino]-4-pyridyl]ethoxy]-1-methyl-pyrazolo[3,4-c]pyridazin-5-yl]-1H-pyrimidine-2,4-dione], the figures for the half-inhibitory concentration (IC50) on CD73 [1] and on CD73 [2] were 0.04 nM and 0.27 nM, respectively. Besides, the EC50 came out at 0.09 nM in the experiment with CD8+ T cells and 0.08 nM with CD4+ T cells.

For the compound `COCCOc1cc([C@@H](Oc2nn(C)c3nnc(-c4c[nH]c(=O)[nH]c4=O)cc23)C(F)F)ccn1` [Example 28, 5-[3-[(1R)-2,2-difluoro-1-[2-(2-methoxyethoxy)-4-pyridyl]ethoxy]-1-methyl-pyrazolo[3,4-c]pyridazin-5-yl]-1H-pyrimidine-2,4-dione], the IC50 is 0.05 nM at CD73 [1] and 0.63 nM on CD73 [2]. For the same compound, the figures for the EC50 with CD8+ T cells and in the experiment on CD4+ T cells were 0.56 nM and 0.33 nM, respectively.

`O=c1[nH]cc(-c2cc(N3C[C@H](Oc4ncc(C(F)(F)F)cn4)C(F)(F)C3)c3nccn3n2)c(=O)[nH]1` [Example G351, reference compound]: the IC50 on CD73 [2] was determined as 3.53 nM. For the same compound, the EC50 with CD8+ T cells was found to be 8.2 nM; with CD4+ T cells it was 8.8 nM.
